# Calls of active or inactive are those of the source.
# What was measured:
# [1] = target: Cannabinoid receptor 1 (Homo sapiens, UniProt P21554); experiment: Displacement of [3H]-CP-55,940 from recombinant human CB1R expressed in HEK293 cell membranes
# [2] = target: T1, Cannabinoid receptor 2 (Homo sapiens, UniProt P34972); experiment: Displacement of [3H]-CP-55,940 from recombinant human CB2R expressed in HEK293 cell membranes
# [3] = target: T1, Cannabinoid receptor 2; experiment: Inverse agonist activity at recombinant human CB2R expressed in CHOK1 cells assessed as increase in NKH477-stimulated intracellular cAMP levels after 30 mins by chemiluminescent based cAMP Hunter assay; assay type: functional, cell-based, CHO-K1
# [4] = tested on: NIH3T3; experiment: Cytotoxicity against mouse NIH/3T3 assessed as reduction in cell viability after 1 to 14 days by Neutral red dye-based UV-visible spectrophotometer analysis; assay type: functional
# [5] = Cytotoxicity against human NHAC-kn assessed as reduction in cell viability after 1 to 14 days by Neutral red dye-based UV-visible spectrophotometer analysis; assay type: functional
# [6] = Kinetic solubility of the compound at pH 1.0 by HPLC-UV method; assay type: physicochemical; details: buffer, read-out: Kinetic_solubility
# [7] = Kinetic solubility of the compound at pH 7.4 by HPLC-UV method; assay type: physicochemical; details: buffer, read-out: Kinetic_solubility
# [8] = Ionization Constants, pKa of the compound by UV-vis spectra analysis; assay type: physicochemical
# [9] = Lipophilicity, log P of the compound by UV-vis spectra analysis; assay type: physicochemical; details: octanol/water
# [10] = species on record: Homo sapiens; experiment: Selectivity index, ratio of Ki for recombinant human CB1R expressed in HEK293 cell membranes to Ki for recombinant human CB2R expressed in HEK293 cell membranes; assay type: cell-based
# [11] = target: T1, Cannabinoid receptor 2; experiment: Agonist activity at recombinant human CB2R expressed in CHOK1 cells assessed as inhibition of NKH477-stimulated intracellular cAMP levels after 30 mins by chemiluminescent detection based cAMP Hunter assay; assay type: functional, cell-based, CHO-K1
# [12] = Cytotoxicity against human NHAC-kn assessed as reduction in cell viability at 7.5 uM after 1 day by Neutral red dye-based UV-visible spectrophotometer analysis (reference value: 46 +/- 6%); assay type: functional
# [13] = Cytotoxicity against human NHAC-kn assessed as reduction in cell viability at 7.5 uM after 7 days by Neutral red dye-based UV-visible spectrophotometer analysis (reference value: 73 +/- 8%); assay type: functional
# [14] = Cytotoxicity against human NHAC-kn assessed as reduction in cell viability at 7.5 uM after 14 days by Neutral red dye-based UV-visible spectrophotometer analysis (reference value: 100 +/- 11%); assay type: functional
# [15] = tested on: Rattus norvegicus; experiment: Analgesic activity in MIA induced Wistar rat assessed as hind limb withdrawal threshold at 1 mg/kg, ip injection after 300 mins by PAM test; assay type: functional, organism-based
# [16] = tested on: Rattus norvegicus; experiment: Analgesic activity in MIA induced Wistar rat assessed as hind limb withdrawal threshold at 1 mg/kg, ip injection after 300 mins in presence of AM-630 by PAM test; assay type: functional, organism-based
# [17] = tested on: Rattus norvegicus; experiment: Analgesic activity in MIA induced Wistar rat assessed as differences in forces applied between rear left and rear right injured paws at 1 mg/kg, ip injection after 60 mins by KWB test; assay type: functional, organism-based
# [18] = tested on: Rattus norvegicus; experiment: Analgesic activity in MIA induced Wistar rat assessed as differences in forces applied between rear left and rear right injured paws at 1 mg/kg, ip injection after 60 mins in presence of AM-630 by KWB test; assay type: functional, organism-based
# [19] = target: T1, Cannabinoid receptor 2; experiment: Antagonist activity at TNF-alpha induced CB2R in human HC-OA cells assessed as decreased in IL-1beta mRNA production preincubated for 1 hr followed by TNF-alpha stimulation measured after 5 hrs by RT-PCR analysis; assay type: cell-based
# [20] = target: T1, Cannabinoid receptor 2; experiment: Antagonist activity at TNF-alpha induced CB2R in human HC-OA cells assessed as decreased in IL-1beta mRNA production preincubated for 1 hr followed by TNF-alpha stimulation measured after 5 hrs in presence of AM-630 by RT-PCR analysis; assay type: cell-based
# [21] = Induction of extracellular matrix production in human NHAC-kn cells assessed as sGAG level at 7.5 uM after 1 day by UV-visible spectrophotometer analysis (reference value: 9.3 +/- 0.2 ug); assay type: functional
# [22] = Induction of extracellular matrix production in human NHAC-kn cells assessed as sGAG level at 7.5 uM after 7 days by UV-visible spectrophotometer analysis (reference value: 11.2 +/- 0.4 ug); assay type: functional
# [23] = Induction of extracellular matrix production in human NHAC-kn cells assessed as sGAG level at 7.5 uM after 14 days by UV-visible spectrophotometer analysis (reference value: 12.0 +/- 0.4 ug); assay type: functional
# [24] = Induction of extracellular matrix production in human NHAC-kn cells assessed as HYP level at 7.5 uM after 1 day by UV-visible spectrophotometer analysis (reference value: 9.9 +/- 0.3 ug); assay type: functional
# [25] = Induction of extracellular matrix production in human NHAC-kn cells assessed as HYP level at 7.5 uM after 7 days by UV-visible spectrophotometer analysis (reference value: 13.2 +/- 0.3 ug); assay type: functional
# [26] = Induction of extracellular matrix production in human NHAC-kn cells assessed as HYP level at 7.5 uM after 14 days by UV-visible spectrophotometer analysis (reference value: 14.2 +/- 0.4 ug); assay type: functional
# [27] = Induction of extracellular matrix production in human NHAC-kn cells assessed as sGAG/HYP level at 7.5 uM after 1 day by UV-visible spectrophotometer analysis (reference value: 0.9 +/- 0.1 ug); assay type: functional
# [28] = Induction of extracellular matrix production in human NHAC-kn cells assessed as sGAG/HYP level at 7.5 uM after 7 days by UV-visible spectrophotometer analysis (reference value: 0.8 +/- 0.2 ug); assay type: functional
# [29] = Induction of extracellular matrix production in human NHAC-kn cells assessed as sGAG/HYP level at 7.5 uM after 14 days by UV-visible spectrophotometer analysis (reference value: 0.9 +/- 0.2 ug); assay type: functional
# T1 sequence (P34972 whole entry): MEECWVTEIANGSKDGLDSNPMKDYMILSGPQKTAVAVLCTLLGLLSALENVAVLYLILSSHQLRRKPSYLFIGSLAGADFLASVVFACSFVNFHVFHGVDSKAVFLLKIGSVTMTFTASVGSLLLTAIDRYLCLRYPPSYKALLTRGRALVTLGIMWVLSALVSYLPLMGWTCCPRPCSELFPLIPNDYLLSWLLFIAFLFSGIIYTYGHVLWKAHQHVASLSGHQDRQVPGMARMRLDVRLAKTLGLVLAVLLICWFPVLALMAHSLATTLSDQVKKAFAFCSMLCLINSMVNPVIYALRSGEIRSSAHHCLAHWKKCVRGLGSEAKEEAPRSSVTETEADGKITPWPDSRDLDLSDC
# Cannabinoid receptor 1, sequence (P21554 whole entry): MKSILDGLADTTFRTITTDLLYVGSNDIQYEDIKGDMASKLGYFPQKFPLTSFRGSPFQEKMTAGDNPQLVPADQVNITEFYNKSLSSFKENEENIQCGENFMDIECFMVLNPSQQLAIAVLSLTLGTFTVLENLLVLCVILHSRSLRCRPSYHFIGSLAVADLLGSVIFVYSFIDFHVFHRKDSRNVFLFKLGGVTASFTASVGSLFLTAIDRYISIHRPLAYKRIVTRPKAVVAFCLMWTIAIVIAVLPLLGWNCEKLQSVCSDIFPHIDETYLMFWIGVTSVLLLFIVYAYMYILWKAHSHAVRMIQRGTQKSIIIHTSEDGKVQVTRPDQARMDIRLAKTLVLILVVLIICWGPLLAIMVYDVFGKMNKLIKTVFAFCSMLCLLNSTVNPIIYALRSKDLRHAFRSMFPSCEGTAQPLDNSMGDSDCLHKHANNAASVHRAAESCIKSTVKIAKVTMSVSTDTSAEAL
structure (smiles),measurement,setting,value
CCCCn1c(=O)c(C(=O)NC23CC4CC(CC(C4)C2)C3)c(O)c2nn(C)cc21,Ki,[1],231 nM
same,Ki,[2],2.5 nM
same,EC50,[3],370 nM
same,IC50,[4],12500 nM
same,IC50,[5],7500 nM
same,solubility kinetic,[6],0.23 µg/mL
same,solubility kinetic,[7],1.9 µg/mL
same,pKa,[8],8.6
same,logP,[9],5.3
CCCCn1c(=O)c(C(=O)NC23CC4CC(CC(C4)C2)C3)c(O)c2nn(CCO)cc21,Ki,[1],> 1000 nM
same,Ki,[2],18.4 nM
same,IC50,[4],12500 nM
same,IC50,[5],2500 nM
same,solubility kinetic,[6],1.6 µg/mL
same,solubility kinetic,[7],2.1 µg/mL
Cn1cc2c(n1)c(O)c(C(=O)NC13CC4CC(CC(O)(C4)C1)C3)c(=O)n2CCCCF,Ki,[1],> 1000 nM
same,Ki,[2],6.2 nM
same,EC50,[3],590 nM
same,IC50,[4],25000 nM
same,IC50,[5],12500 nM
same,solubility kinetic,[6],39.9 µg/mL
same,solubility kinetic,[7],37.6 µg/mL
same,pKa,[8],7.97
same,logP,[9],3.15
CCCCCn1c(=O)c(C(=O)NC23CC4CC(CC(C4)C2)C3)c(O)c2nn(CCO)cc21,Ki,[1],108 nM
same,Ki,[2],4.8 nM
same,EC50,[3],880 nM
same,IC50,[4],7500 nM
same,IC50,[5],2500 nM
same,solubility kinetic,[6],0.38 µg/mL
same,solubility kinetic,[7],0.7 µg/mL
CCCn1c(=O)c(C(=O)NC23CC4CC(CC(C4)C2)C3)c(O)c2nn(CCOC(C)=O)cc21,Ki,[1],> 1000 nM
same,Ki,[2],186 nM
same,Ratio Ki,[10],5
same,solubility kinetic,[7],1.1 µg/mL
CCCCN1C(=O)C(C(=O)NC23CC4CC(CC(C4)C2)C3)=C(O)C2C1C=NN2C (stereo not drawn),Ki,[1],69 nM
same,Ki,[2],1.8 nM
same,EC50,[11],110 nM
same,IC50,[4],25000 nM
same,IC50,[5],12500 nM
same,Activity,[12],51%
same,Activity,[13],68%
same,Activity,[14],94%
same,solubility kinetic,[6],0.13 µg/mL
same,solubility kinetic,[7],0.49 µg/mL
same,pKa,[8],8
same,logP,[9],5.3
same,Activity,[15],Active
same,Activity,[16],inactive
same,Activity,[17],Active
same,Activity,[18],inactive
same,Activity,[19],Active
same,Activity,[20],inactive
same,Activity,[21],8.9%
same,Activity,[22],12.6%
same,Activity,[23],14.2%
same,Activity,[24],10.1%
same,Activity,[25],12.9%
same,Activity,[26],13.9%
same,Activity,[27],0.9%
same,Activity,[28],1%
same,Activity,[29],1%
CCCCCn1c(=O)c(C(=O)NC23CC4CC(CC(O)(C4)C2)C3)c(O)c2nn(CCO)cc21,Ki,[1],492 nM
same,Ki,[2],57.1 nM
same,IC50,[4],7500 nM
same,IC50,[5],2500 nM
same,solubility kinetic,[6],9.7 µg/mL
same,solubility kinetic,[7],15 µg/mL
CN1N=CC2C1C(O)=C(C(=O)NC13CC4CC(CC(O)(C4)C1)C3)C(=O)N2CCCCF (stereo not drawn),Ki,[1],161 nM
same,Ki,[2],18.9 nM
same,EC50,[11],71.8 nM
same,IC50,[4],25000 nM
same,IC50,[5],7500 nM
same,solubility kinetic,[6],9.1 µg/mL
same,solubility kinetic,[7],15.1 µg/mL
CN1N=CC2C1C(O)=C(C(=O)NC13CC4CC(CC(C4)C1)C3)C(=O)N2CCCCF (stereo not drawn),Ki,[1],39.3 nM
same,Ki,[2],1.4 nM
same,EC50,[11],21.9 nM
same,IC50,[4],12500 nM
same,IC50,[5],12500 nM
same,solubility kinetic,[6],0.7 µg/mL
same,solubility kinetic,[7],1.5 µg/mL
Cn1cc2c(n1)c(O)c(C(=O)NC13CC4CC(CC(C4)C1)C3)c(=O)n2CCCCO,Ki,[1],> 1000 nM
same,Ki,[2],14.3 nM
same,EC50,[3],1450 nM
same,IC50,[4],25000 nM
same,IC50,[5],12500 nM
same,solubility kinetic,[6],2.53 µg/mL
same,solubility kinetic,[7],3.2 µg/mL
COc1ccc(C(=O)c2c(C)n(CCN3CCOCC3)c3cc(I)ccc23)cc1,EC50,[3],3150 nM
CCCCCN1C(=O)C(C(=O)NC23CC4CC(CC(C4)C2)C3)=C(O)C2C1C=NN2C (stereo not drawn),Ki,[1],56 nM
same,Ki,[2],0.9 nM
same,Ratio Ki,[10],62
same,EC50,[11],252 nM
same,solubility kinetic,[6],0.4 µg/mL
same,solubility kinetic,[7],1.08 µg/mL
CCCCCn1c(=O)c(C(=O)NC23CC4CC(CC(C4)C2)C3)c(O)c2nn(C)cc21,Ki,[1],33.5 nM
same,Ki,[2],0.18 nM
same,Ratio Ki,[10],167
same,EC50,[3],1180 nM
same,solubility kinetic,[6],2.9 µg/mL
same,solubility kinetic,[7],1.9 µg/mL
CCCC(C)(C)c1ccc2c(c1)OC(C)(C)[C@@H]1CC=C(C)C[C@@H]21,EC50,[11],391 nM
CCCn1c(=O)c(C(=O)NC23CC4CC(CC(C4)C2)C3)c(O)c2nn(CCO)cc21,Ki,[1],> 1000 nM
same,Ki,[2],159 nM
same,Ratio Ki,[10],6
same,solubility kinetic,[6],3.4 µg/mL
same,solubility kinetic,[7],3.9 µg/mL
CCCCCn1cc(C(=O)NC23CC4CC(CC(C4)C2)C3)c(=O)c2cc(C(C)C)ccc21,solubility kinetic,[7],1 µg/mL
CCCCN1C(=O)C(C(=O)NC23CC4CC(CC(O)(C4)C2)C3)=C(O)C2C1C=NN2C (stereo not drawn),Ki,[1],86.9 nM
same,Ki,[2],19.3 nM
same,IC50,[4],25000 nM
same,IC50,[5],7500 nM
same,solubility kinetic,[6],2.1 µg/mL
same,solubility kinetic,[7],4.6 µg/mL
same,pKa,[8],7.56
same,logP,[9],4.85
Cn1cc2c(n1)c(O)c(C(=O)NC13CC4CC(CC(C4)C1)C3)c(=O)n2CCCCF,Ki,[1],532 nM
same,Ki,[2],2.1 nM
same,EC50,[3],270 nM
same,IC50,[4],12500 nM
same,IC50,[5],7500 nM
same,solubility kinetic,[6],0.6 µg/mL
same,solubility kinetic,[7],0.8 µg/mL
CCCCn1c(=O)c(C(=O)NC23CC4CC(CC(O)(C4)C2)C3)c(O)c2nn(C)cc21,Ki,[1],> 1000 nM
same,Ki,[2],10.6 nM
same,IC50,[4],7500 nM
same,IC50,[5],2500 nM
same,solubility kinetic,[6],15 µg/mL
same,solubility kinetic,[7],20.9 µg/mL
same,pKa,[8],7.9
same,logP,[9],4.08
CC(=O)OCCCCn1c(=O)c(C(=O)NC23CC4CC(CC(C4)C2)C3)c(O)c2nn(C)cc21,Ki,[1],> 1000 nM
same,Ki,[2],17.3 nM
same,EC50,[3],2080 nM
same,IC50,[4],25000 nM
same,IC50,[5],7500 nM
same,solubility kinetic,[7],1.3 µg/mL

# — ChEMBL document CHEMBL4616678, “Design, Synthesis, and Physicochemical and Pharmacological Profiling of 7-Hydroxy-5-oxopyrazolo[4,3-b]pyridine-6-carboxamide Derivatives with Antiosteoarthritic Activity In Vivo” (J Med Chem, 2020)
